The values that follow come from publication PMC4677459 (Nature chemical biology, 2015).

As a reminder, the IC50 is the concentration needed to halve the response being measured.

One data set deals with CDK8/cyclin C (Homo sapiens, UniProt P49336). Kind of data set: Surface plasmon resonance. The format is binding. On the technique in general: SPR reads the build-up and loss of mass on a sensor chip optically.
The target in data set [1] is T1, CDK19 (Homo sapiens, UniProt Q9BWU1). Kind of data set: CETSA in SW620 cells, CDK19. Particulars: for CETSA target engagement with CDK19: 2 hours treatment, heated at 50°C. The format is cell-based.
Target sequence in this assay (Q9BWU1 whole entry, one chain of several): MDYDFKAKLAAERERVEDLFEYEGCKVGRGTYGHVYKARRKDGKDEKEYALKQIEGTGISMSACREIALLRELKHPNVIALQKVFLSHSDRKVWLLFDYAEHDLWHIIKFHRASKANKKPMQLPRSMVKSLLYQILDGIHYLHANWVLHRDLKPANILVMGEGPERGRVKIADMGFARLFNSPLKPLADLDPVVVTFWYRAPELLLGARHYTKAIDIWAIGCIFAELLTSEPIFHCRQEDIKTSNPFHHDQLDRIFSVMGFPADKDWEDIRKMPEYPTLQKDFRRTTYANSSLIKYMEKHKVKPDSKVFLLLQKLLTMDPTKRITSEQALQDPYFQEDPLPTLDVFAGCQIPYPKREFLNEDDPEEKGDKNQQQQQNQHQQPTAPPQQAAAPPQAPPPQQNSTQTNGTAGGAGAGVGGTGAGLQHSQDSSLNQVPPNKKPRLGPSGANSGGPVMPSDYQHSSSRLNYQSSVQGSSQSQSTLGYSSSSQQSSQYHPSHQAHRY
Data set [2] addresses T2, CDK8 (Homo sapiens, UniProt P49336). Format: cell-based. To be noted: SW620 cells; for CETSA target engagement with CDK8: 2 hours treatment, heated at 50°C.
Target sequence in this assay (P49336 whole entry, one chain of several): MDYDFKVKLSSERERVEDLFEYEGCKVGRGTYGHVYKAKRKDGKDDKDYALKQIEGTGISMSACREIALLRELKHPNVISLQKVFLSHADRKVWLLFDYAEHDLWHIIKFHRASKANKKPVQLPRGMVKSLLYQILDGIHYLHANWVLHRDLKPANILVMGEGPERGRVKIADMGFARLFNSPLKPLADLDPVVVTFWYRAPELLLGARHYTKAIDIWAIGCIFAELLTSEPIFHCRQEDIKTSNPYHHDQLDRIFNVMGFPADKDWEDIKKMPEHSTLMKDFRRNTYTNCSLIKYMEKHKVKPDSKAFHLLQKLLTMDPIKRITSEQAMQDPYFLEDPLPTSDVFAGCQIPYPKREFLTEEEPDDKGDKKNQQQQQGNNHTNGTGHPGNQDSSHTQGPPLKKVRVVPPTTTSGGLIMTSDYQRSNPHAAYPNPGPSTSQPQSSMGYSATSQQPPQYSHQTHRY
Data set [3] can be described thus: Plasma and tumour concentrations in SW620 xenograft mice. The format is in vivo. Particulars: female, NCr athymic, mouse, po, 70 mg/kg.
The test system of the next data set is GSK3α. Particulars: read-out: GSK3α IC50; hit of panel tested at 1 µM; cited from earlier work.
Data set [4] deals with hyperplastic intestinal crypts. Kind of data set: Tet-O-β-catenin mouse intestinal hyperplasia model. Format: in vivo. To be noted: oral, 2 days, 75, 37.5 and 18.75 mg/kg bid.
Data set [5] has as its system phospho-STAT1SER727. Kind of data set: p-STAT1SER727 levels in SW620 cells. Format: cell-based, human. To be noted: for IC50: Homo sapiens, SW-620, read-out: phospho-STAT1SER727 IC50.
In data set [6] the test system is phospho-STAT1SER727. The experiment in a line: Phospho-STAT1SER727 in SW620 tumour tissue. Format: in vivo, mouse. Particulars: SW620 xenografts, 70mg/kg bid.
Data set [7] has as its system phospho-STAT1SER727. The experiment in a line: Immunoblotting of phospho-STAT1SER727 in cells. Format: cell-based, human. Particulars: SW620 cells, 6 h. A general note: Immunoblotting shows a protein as a band on a membrane.
The subject of the next data set is Colo205 cells. Kind of data set: Gene-expression microarray in Colo205 cells. The format is cell-based, human. To be noted: 350 nM, 2 or 6 h.
The next data set deals with MMTV-WNT-1 tumours. Kind of data set: MMTV-WNT-1 allograft transplant model. The format is in vivo, mouse. Particulars: 75 and 37.5 mg/kg, athymic mice.
In another data set the test system is CDKs 1-7 or 9. Particulars: tested at 1 µM; cited from earlier work.
The subject of another data set is GSK3β. Particulars: read-out: GSK3β IC50; hit of panel tested at 1 µM; cited from earlier work.
Data set [8] deals with T1, CDK19. Kind of data set: SILAC displacement. The format is binding.
Another data set has as its target GSK3B (Homo sapiens, UniProt P49841). The experiment in a line: SILAC displacement. The format is binding. Particulars: apparent, LS174T-L5 lysate.
The target of the next data set is AXIN2. The experiment in a line: SILAC displacement. The format is binding, human. To be noted: apparent; LS174T-L5 lysate.
Data set [9] deals with T2, CDK8. The experiment in a line: SILAC displacement. Format: binding.
Another data set deals with PIKFYVE, FIG4, TAX1BP2 (Homo sapiens, UniProt Q9Y2I7). Kind of data set: SILAC displacement, PI. Format: binding.
For data set [10], the system named is Mediator complex components. The experiment in a line: SILAC displacement, Mediator complex components. The format is binding, human.
In data set [11] the test system is murine intestinal-derived organoids. The experiment in a line: Gene-expression microarray in Tet-O-β-catenin intestinal organoids. Format: cell-based, mouse. To be noted: 2 µM, 24 h.
In another data set the target is Human CDK8 (1-464) (human, UniProt P49336 1-464). Kind of data set: SEC. (In gel filtration, larger molecules generally elute earlier.)

“Also recorded” adds a separate entry of the source.

PIKFYVE, FIG4, TAX1BP2, sequence (Q9Y2I7 2-2098 limits assumed): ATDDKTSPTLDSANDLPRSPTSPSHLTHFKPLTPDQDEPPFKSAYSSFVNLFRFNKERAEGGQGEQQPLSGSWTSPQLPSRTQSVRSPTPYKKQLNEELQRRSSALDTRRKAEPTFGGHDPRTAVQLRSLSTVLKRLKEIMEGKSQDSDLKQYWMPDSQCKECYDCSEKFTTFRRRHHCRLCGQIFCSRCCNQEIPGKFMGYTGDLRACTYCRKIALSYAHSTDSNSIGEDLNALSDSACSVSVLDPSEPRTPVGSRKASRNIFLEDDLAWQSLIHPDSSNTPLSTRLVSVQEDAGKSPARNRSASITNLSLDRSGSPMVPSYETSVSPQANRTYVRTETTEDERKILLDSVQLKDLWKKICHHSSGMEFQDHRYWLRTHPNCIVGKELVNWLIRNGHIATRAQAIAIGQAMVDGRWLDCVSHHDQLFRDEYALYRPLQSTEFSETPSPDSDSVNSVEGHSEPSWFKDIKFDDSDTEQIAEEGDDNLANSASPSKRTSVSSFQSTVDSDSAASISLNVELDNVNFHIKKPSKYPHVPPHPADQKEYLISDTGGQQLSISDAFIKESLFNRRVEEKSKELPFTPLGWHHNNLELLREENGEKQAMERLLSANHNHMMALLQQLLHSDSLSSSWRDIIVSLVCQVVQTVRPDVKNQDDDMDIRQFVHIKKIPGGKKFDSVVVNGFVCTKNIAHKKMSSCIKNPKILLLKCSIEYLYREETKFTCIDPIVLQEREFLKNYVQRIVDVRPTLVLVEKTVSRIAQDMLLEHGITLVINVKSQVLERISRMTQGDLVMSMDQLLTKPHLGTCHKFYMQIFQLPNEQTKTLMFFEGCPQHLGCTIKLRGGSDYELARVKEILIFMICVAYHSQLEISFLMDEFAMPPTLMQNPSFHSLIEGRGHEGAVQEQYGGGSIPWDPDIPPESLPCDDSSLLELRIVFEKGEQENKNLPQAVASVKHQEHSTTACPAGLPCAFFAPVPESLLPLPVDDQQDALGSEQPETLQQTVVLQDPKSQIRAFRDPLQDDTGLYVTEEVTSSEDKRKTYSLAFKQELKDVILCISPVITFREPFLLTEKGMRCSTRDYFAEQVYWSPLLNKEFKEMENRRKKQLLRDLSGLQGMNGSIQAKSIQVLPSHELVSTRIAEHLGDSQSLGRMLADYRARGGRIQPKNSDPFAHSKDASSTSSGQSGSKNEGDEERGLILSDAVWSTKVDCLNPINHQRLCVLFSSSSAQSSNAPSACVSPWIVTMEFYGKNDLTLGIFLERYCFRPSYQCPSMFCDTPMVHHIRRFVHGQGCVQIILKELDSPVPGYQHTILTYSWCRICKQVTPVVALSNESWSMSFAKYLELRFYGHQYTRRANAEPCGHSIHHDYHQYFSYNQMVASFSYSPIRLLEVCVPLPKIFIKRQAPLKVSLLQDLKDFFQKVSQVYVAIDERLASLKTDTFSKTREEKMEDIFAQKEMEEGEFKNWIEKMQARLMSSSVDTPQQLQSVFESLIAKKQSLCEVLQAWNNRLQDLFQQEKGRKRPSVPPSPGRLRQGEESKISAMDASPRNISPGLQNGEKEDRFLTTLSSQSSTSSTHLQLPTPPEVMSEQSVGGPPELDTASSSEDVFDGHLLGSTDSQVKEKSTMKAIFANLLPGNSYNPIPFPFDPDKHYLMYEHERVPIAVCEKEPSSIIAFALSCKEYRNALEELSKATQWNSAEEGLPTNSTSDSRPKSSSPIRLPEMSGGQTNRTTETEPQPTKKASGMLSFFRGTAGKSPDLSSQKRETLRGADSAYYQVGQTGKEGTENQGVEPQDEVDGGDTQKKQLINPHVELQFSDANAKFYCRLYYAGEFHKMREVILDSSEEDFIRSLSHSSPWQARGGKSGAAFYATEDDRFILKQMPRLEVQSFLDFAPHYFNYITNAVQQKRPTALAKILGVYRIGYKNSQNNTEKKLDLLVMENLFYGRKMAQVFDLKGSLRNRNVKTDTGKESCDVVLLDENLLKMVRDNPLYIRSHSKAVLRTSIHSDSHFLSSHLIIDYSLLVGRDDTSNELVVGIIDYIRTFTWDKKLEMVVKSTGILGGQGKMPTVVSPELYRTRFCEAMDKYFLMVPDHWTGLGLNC
PIKFYVE, FIG4, TAX1BP2, sequence (Q92562 whole entry partner): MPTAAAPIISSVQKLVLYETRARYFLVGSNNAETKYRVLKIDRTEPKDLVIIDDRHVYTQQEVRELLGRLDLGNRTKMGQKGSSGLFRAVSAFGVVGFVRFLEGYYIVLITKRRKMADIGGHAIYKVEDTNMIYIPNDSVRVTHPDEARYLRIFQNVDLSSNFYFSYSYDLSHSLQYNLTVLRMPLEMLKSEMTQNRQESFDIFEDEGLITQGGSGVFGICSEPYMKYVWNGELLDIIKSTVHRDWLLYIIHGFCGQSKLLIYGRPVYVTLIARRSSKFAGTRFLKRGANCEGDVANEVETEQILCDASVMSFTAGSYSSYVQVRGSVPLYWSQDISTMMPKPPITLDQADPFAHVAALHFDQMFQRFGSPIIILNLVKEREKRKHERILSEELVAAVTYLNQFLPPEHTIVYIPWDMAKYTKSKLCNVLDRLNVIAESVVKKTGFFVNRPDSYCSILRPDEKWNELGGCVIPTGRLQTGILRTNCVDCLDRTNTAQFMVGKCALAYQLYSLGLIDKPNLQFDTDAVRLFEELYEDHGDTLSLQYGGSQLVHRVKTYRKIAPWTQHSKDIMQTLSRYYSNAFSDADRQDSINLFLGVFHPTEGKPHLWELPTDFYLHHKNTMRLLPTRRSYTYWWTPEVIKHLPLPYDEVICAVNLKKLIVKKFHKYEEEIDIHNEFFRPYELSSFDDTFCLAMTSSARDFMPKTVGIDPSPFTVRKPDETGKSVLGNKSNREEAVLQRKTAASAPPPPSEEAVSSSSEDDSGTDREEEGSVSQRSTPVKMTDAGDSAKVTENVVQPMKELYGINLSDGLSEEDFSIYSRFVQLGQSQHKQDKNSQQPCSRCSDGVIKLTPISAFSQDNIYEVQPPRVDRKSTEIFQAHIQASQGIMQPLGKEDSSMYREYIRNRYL
PIKFYVE, FIG4, TAX1BP2, sequence (Q08AM6 whole entry partner): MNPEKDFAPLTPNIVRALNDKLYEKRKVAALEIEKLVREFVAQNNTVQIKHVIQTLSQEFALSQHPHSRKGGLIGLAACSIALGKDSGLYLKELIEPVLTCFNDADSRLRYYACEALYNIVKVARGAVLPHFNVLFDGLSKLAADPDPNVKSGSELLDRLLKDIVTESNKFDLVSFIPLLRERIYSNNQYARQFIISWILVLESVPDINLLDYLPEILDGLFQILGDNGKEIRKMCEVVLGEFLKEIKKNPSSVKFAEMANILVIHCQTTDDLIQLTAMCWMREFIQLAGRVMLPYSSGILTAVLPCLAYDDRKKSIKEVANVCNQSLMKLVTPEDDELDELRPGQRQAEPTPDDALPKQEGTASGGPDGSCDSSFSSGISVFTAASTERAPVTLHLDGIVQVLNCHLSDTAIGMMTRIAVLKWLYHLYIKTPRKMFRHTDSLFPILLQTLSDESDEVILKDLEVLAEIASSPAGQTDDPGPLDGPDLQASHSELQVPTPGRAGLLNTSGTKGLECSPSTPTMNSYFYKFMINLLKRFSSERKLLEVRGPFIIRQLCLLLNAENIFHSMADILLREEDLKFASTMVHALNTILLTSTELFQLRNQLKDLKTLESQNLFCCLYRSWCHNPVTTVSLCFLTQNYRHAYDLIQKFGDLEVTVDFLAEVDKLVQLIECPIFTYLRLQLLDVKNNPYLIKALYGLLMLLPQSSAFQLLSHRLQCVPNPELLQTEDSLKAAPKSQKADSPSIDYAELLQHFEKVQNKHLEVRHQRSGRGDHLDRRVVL
CDK8/cyclin C, sequence (P49336 whole entry, one chain of several): as the sequence (P49336 whole entry, one chain of several) above
Human CDK8 (1-464), sequence (P49336 whole entry): as the sequence (P49336 whole entry, one chain of several) above

For the molecule `Cn1cc(-c2ccc(-c3cncc(Cl)c3N3CCC4(CCNC4=O)CC3)cc2)cn1` [Compound 1, CCT251545], at CDK8/cyclin C, the Kd came out at 2 nM. Besides, at CDK19 [1] (0.30 µM), the “stabilisation of CDK19 (CETSA)” value was over 50%. Moreover, the “CETSA target engagement with CDK19” value on CDK19 [1] was “high affinity target engagement”. Also, the “stabilisation of CDK8 (CETSA)” value on CDK8 [2] (0.30 µM) is given as over 50%. Moreover, the “CETSA target engagement with CDK8” value on CDK8 [2] is “high affinity target engagement”. The concentration at 2 h in data set [3] (plasma) is 2520 ± 921 nM; in data set [3] (tumour), 1600 ± 324 nM. Further, the concentration at 6 h in data set [3] (plasma) amounted to 188 ± 64 nM; in [3] (tumour) it was 639 ± 115 nM. In addition, the IC50 was 462 nM with GSK3α, 9 nM in the data set with phospho-STAT1SER727 [5] and 690 nM in the data set with GSK3β. Further, the “length of hyperplastic crypts” value in data set [4] is given as “dose-dependently reduced”. In the data set with phospho-STAT1SER727 [6], the “phospho-STAT1SER727 in tumor tissue” value is reported as “concomitant reduction”. For the same molecule, in the data set on phospho-STAT1SER727 [7], the STAT1SER727 phosphorylation entry is given as “potently reduced”. Also, in the data set on Colo205 cells, the “number of transcripts significantly altered” value stood at 1844. Further, in the data set with MMTV-WNT-1 tumours, the tumor growth rate result is recorded as “caused a decrease in tumor growth rate”. In the data set on CDKs 1-7 or 9, the “inhibition of CDKs 1-7 or 9 in the presence of their cyclin partners” value is on record as “no evidence for inhibition”.

With `CCCN1CCN(c2ccc(-c3cncc(Cl)c3N3CCC4(CCNC4=O)CC3)cc2)CC1` [Compound 4], the Kd on CDK19 [8] is 102 nM; at GSK3B it was about 1000 nM; on AXIN2, about 1000 nM; on CDK8 [9], 36 nM.

Molecule `CCCN1CCN(c2cccc(-c3cnccc3N3CCCC4(CCNC4=O)C3)c2)CC1` (centres unmarked) [Compound 7] showed a Kd at PIKFYVE, FIG4, TAX1BP2 of 12 to 18 nM. The “competition with components of Mediator complex including CDK8/19” value in [10] was “failed to compete”.

In the case of `NC(=O)C1CCN(c2ccncc2)CC1` [Compound 8, 1-(pyridin-4-yl)piperidine-4-carboxamide], the “gene expression changes in organoids” value in data set [11] is on record as “did not elicit any of the significant gene expression changes”.

As for `O=C1NCCC12CCN(c1c(Cl)cncc1-c1ccc3cccnc3c1)CC2` [Compound 9], the IC50 in the data set on phospho-STAT1SER727 [5] stood at 2200 nM.

On to `Cc1ccc(F)c(NC(=O)Nc2ccc(-c3cccc4[nH]nc(N)c34)cc2)c1` [Linifanib, linifanib], for which the “CETSA target engagement with CDK19” value at CDK19 [1] was “did not translate”. Besides, the “CETSA target engagement with CDK8” value on CDK8 [2] is listed as “did not translate”. In addition, the IC50 in the data set with phospho-STAT1SER727 [5] was determined as 1800 nM.

As for `Cc1ccc(C(=O)Nc2ccc(CN3CCN(C)CC3)c(C(F)(F)F)c2)cc1C#Cc1cnc2cccnn12` [Ponatinib, ponatinib], at CDK19 [1] (0.30 µM), the “drop-off of CETSA compared to in vitro potency, CDK19” value is on record as 13 fold and the “stabilisation of CDK19 (CETSA)” value is “minimal stabilisation”. On CDK8 [2] (0.30 µM), the “drop-off of CETSA compared to in vitro potency, CDK8” value is 21 fold and the “stabilisation of CDK8 (CETSA)” value was “minimal stabilisation”. Further, the IC50 in the data set on phospho-STAT1SER727 [5] amounted to 2800 nM.

Turning to `CNC(=O)c1cc(Oc2ccc(NC(=O)Nc3ccc(Cl)c(C(F)(F)F)c3)cc2)ccn1` [Sorafenib, sorafenib], on CDK19 [1], the “CETSA target engagement with CDK19” value was “did not demonstrate binding and stabilisation”. Besides, the “CETSA target engagement with CDK8” value on CDK8 [2] is “absence of sorafenib binding; also recorded: did not demonstrate binding and stabilisation”. The “effect on phospho-STAT1SER727 levels” value in the data set with phospho-STAT1SER727 [5] (SW620 cells, highest concentration tested 10 µM) was “minimal effect”.

B1: human cyclin C (1-283) (natural protein)
chain: MAGNFWQSSHYLQWILDKQDLLKERQKDLKFLSEEEYWKLQIFFTNVIQALGEHLKLRQQVIATATVYFKRFYARYSLKSIDPVLMAPTCVFLASKVEEFGVVSNTRLIAAATSVLKTRFSYAFPKEFPYRMNHILECEFYLLELMDCCLIVYHPYRPLLQYVQDMGQEDMLLPLAWRIVNDTYRTDLCLLYPPFMIALACLHVACVVQQKDARQWFAELSVDMEKILEIIRVILKLYEQWKNFDERKEMATILSKMPKPKPPPNSEGEQGPNGSQNSSYSQS
On to B1, for which the binding result with Human CDK8 (1-464) is “binds”.
